Experimental data: US10894036B2, “Use of marizomib for the treatment of central nervous system (CNS) cancers” (Celgene International II Sàrl, priority 2016, dated 2021)

Assay: Phase 1/2 MRZ + BEV and MRZ monotherapy in recurrent G4 MG: adverse events, DLT
Settings: for Ataxia: Treatment Related Grade ≥3 AE, # patients / Confusional State: Treatment Related Grade ≥3 AE, # patients / Delusion: Treatment Related Grade ≥3 AE, # patients / Dyspnea: Treatment Related Grade ≥3 AE, # patients / Embolism: Treatment Related Grade ≥3 AE, # patients / Fall: Treatment Related Grade ≥3 AE, # patients / Fatigue: Treatment Related Grade ≥3 AE, # patients / Hallucination: Treatment Related Grade ≥3 AE, # patients / Headache: Treatment Related Grade ≥3 AE, # patients / Hypertension: Treatment Related Grade ≥3 AE, # patients / Hyponatremia: Treatment Related Grade ≥3 AE, # patients / Insomnia: Treatment Related Grade ≥3 AE, # patients / Intracranial Hemorrhage: Treatment Related Grade ≥3 AE, # patients / Optic Nerve Disorder: Treatment Related Grade ≥3 AE, # patients / Proteinuria: Treatment Related Grade ≥3 AE, # patients: attributed to labelled agent
[1] = MRZ 0.7 mg/m^2 + BEV, Cohort 2, N = 3
[2] = MRZ 0.7 mg/m^2 Cohort 2 (N = 3)
[3] = MRZ 0.8 mg/m^2 + BEV N = 27, MRZ 0.8 mg/m^2 monotherapy N = 30
[4] = MRZ 0.8 mg/m^2 + BEV, Cohorts 3 & 4, N = 27
[5] = MRZ 0.8 mg/m^2 + BEV, N = 27, related to the labelled drug
[6] = MRZ 0.8 mg/m^2 Cohorts 3 & 4 (N = 27)
[7] = MRZ 0.8 mg/m^2 monotherapy, N = 30

Protocol: The clinical trial was a Phase 1, dose-escalation (3+3 design) followed by dose-expansion at recommended Phase 2 Dose (RP2D).
The drugs were infused on 28-Day Cycles. Tumor response is assessed every other cycle by RANO criteria.
The safety data will be presented in individual listings and summary tables, including frequency tables for adverse events and frequency and shift tables for laboratory variables. The safety population will be all subjects who received at least one dose of either study drug in Phase 1 or MRZ in Phase 2.

SMILES: C[C@@]12OC(=O)[C@]1([C@@H](O)[C@@H]1C=CCCC1)NC(=O)[C@@H]2CCCl [marizomib]
- Confusional State, Treatment Related Grade ≥3 AE, patients [1]: 0
- Delusion, Treatment Related Grade ≥3 AE, patients [1]: 0
- Dyspnea, Treatment Related Grade ≥3 AE, patients [1]: 0
- Embolism, Treatment Related Grade ≥3 AE, patients [1]: 0
- Fall, Treatment Related Grade ≥3 AE, patients [1]: 0
- Fatigue, Treatment Related Grade ≥3 AE, patients [1]: 0
- Hallucination, Treatment Related Grade ≥3 AE, patients [1]: 0
- Headache, Treatment Related Grade ≥3 AE, patients [1]: 0
- Hypertension, Treatment Related Grade ≥3 AE, patients [1]: 0
- Hyponatremia, Treatment Related Grade ≥3 AE, patients [1]: 0
- Insomnia, Treatment Related Grade ≥3 AE, patients [1]: 0
- Intracranial Hemorrhage, Treatment Related Grade ≥3 AE, patients [1]: 0
- Optic Nerve Disorder, Treatment Related Grade ≥3 AE, patients [1]: 0
- Proteinuria, Treatment Related Grade ≥3 AE, patients [1]: 0
- Ataxia, Treatment Related Grade ≥3 AE, patients (MRZ 0.7 mg/m^2 + BEV, Cohort 2, N = 3, related to the labelled drug): 0
- Ataxia: Treatment Related Grade ≥3 AE, # patients [2]: 0
- Confusional State: Treatment Related Grade ≥3 AE, # patients [2]: 0
- Delusion: Treatment Related Grade ≥3 AE, # patients [2]: 0
- Dyspnea: Treatment Related Grade ≥3 AE, # patients [2]: 0
- Embolism: Treatment Related Grade ≥3 AE, # patients [2]: 0
- Fall: Treatment Related Grade ≥3 AE, # patients [2]: 0
- Fatigue: Treatment Related Grade ≥3 AE, # patients [2]: 0
- Hallucination: Treatment Related Grade ≥3 AE, # patients [2]: 0
- Headache: Treatment Related Grade ≥3 AE, # patients [2]: 0
- Hypertension: Treatment Related Grade ≥3 AE, # patients [2]: 0
- Hyponatremia: Treatment Related Grade ≥3 AE, # patients [2]: 0
- Insomnia: Treatment Related Grade ≥3 AE, # patients [2]: 0
- Intracranial Hemorrhage: Treatment Related Grade ≥3 AE, # patients [2]: 0
- Optic Nerve Disorder: Treatment Related Grade ≥3 AE, # patients [2]: 0
- Proteinuria: Treatment Related Grade ≥3 AE, # patients [2]: 0
- Fatigue, treatment-related AE, patients (MRZ 0.8 mg/m^2 + BEV Cohorts 3 & 4, N = 27, related to the labelled drug (MRZ + BEV = related to both)): 19 (70.4%)
- Patients with at Least One TEAE (MRZ 0.8 mg/m^2 + BEV Cohorts 3 & 4 N = 27, MRZ 0.8 mg/m^2 monotherapy N = 30): 29 (96.7%) ^[1]
- Anaemia, adverse event, patients [3]: 6 (20.0%)
- Ataxia, adverse event, patients [3]: 6 (20.0%)
- Confusional state, adverse event, patients [3]: 7 (23.3%)
- Constipation, adverse event, patients [3]: 9 (30.0%)
- Diarrhoea, adverse event, patients [3]: 7 (23.3%)
- Dizziness, adverse event, patients [3]: 5 (16.7%)
- Dysarthria, adverse event, patients [3]: 5 (16.7%)
- Dysphonia, adverse event, patients [3]: 1 (3.3%)
- Epistaxis, adverse event, patients [3]: 2 (6.7%)
- Fall, adverse event, patients [3]: 4 (13.3%)
- Fatigue, adverse event, patients [3]: 19 (63.3%)
- Hallucination, adverse event, patients [3]: 12 (40.0%)
- Headache, adverse event, patients [3]: 12 (40.0%)
- Hyperglycaemia, adverse event, patients [3]: 8 (27.6%)
- Hypertension, adverse event, patients [3]: 4 (13.3%)
- Hypokalemia, adverse event, patients [3]: 8 (27.6%)
- Infusion site pain, adverse event, patients [3]: 3 (10.0%)
- Insomnia, adverse event, patients [3]: 14 (46.7%)
- Nausea, adverse event, patients [3]: 11 (36.7%)
- Platelet count decreased, adverse event, patients [3]: 7 (23.3%)
- Vomiting, adverse event, patients [3]: 9 (30.0%)
- Confusional State, Treatment Related Grade ≥3 AE, patients [4]: 0
- Delusion, Treatment Related Grade ≥3 AE, patients [4]: 1
- Dyspnea, Treatment Related Grade ≥3 AE, patients [4]: 1
- Embolism, Treatment Related Grade ≥3 AE, patients [4]: 0
- Fall, Treatment Related Grade ≥3 AE, patients [4]: 1
- Fatigue, Treatment Related Grade ≥3 AE, patients [4]: 1
- Hallucination, Treatment Related Grade ≥3 AE, patients [4]: 1
- Headache, Treatment Related Grade ≥3 AE, patients [4]: 3
- Hypertension, Treatment Related Grade ≥3 AE, patients [4]: 0
- Hyponatremia, Treatment Related Grade ≥3 AE, patients [4]: 1
- Insomnia, Treatment Related Grade ≥3 AE, patients [4]: 1
- Intracranial Hemorrhage, Treatment Related Grade ≥3 AE, patients [4]: 0
- Optic Nerve Disorder, Treatment Related Grade ≥3 AE, patients [4]: 0
- Proteinuria, Treatment Related Grade ≥3 AE, patients [4]: 0
- Ataxia, Treatment Related Grade ≥3 AE, patients (MRZ 0.8 mg/m^2 + BEV, Cohorts 3 & 4, N = 27, related to the labelled drug): 1
- Anaemia, treatment-related AE, patients [5]: 5 (18.5%)
- Ataxia, treatment-related AE, patients [5]: 7 (25.9%)
- Confusional state, treatment-related AE, patients [5]: 7 (25.9%)
- Constipation, treatment-related AE, patients [5]: 5 (18.5%)
- Diarrhoea, treatment-related AE, patients [5]: 8 (29.6%)
- Dizziness, treatment-related AE, patients [5]: 8 (29.6%)
- Dysphonia, treatment-related AE, patients [5]: 1 (3.7%)
- Epistaxis, treatment-related AE, patients [5]: 0 (0.0%)
- Fall, treatment-related AE, patients [5]: 3 (11.1%)
- Hallucination, treatment-related AE, patients [5]: 12 (44.4%)
- Headache, treatment-related AE, patients [5]: 12 (44.4%)
- Hypertension, treatment-related AE, patients [5]: 1 (3.7%)
- Infusion site pain, treatment-related AE, patients [5]: 4 (14.8%)
- Muscular weakness, treatment-related AE, patients [5]: 3 (11.1%)
- Nausea, treatment-related AE, patients [5]: 17 (63.0%)
- Platelet count decreased, treatment-related AE, patients [5]: 2 (7.4%)
- Stomatitis, treatment-related AE, patients [5]: 3 (11.1%)
- Upper-airway cough syndrome, treatment-related AE, patients [5]: 0 (0.0%)
- Vomiting, treatment-related AE, patients [5]: 15 (55.6%)
- Ataxia: Treatment Related Grade ≥3 AE, # patients [6]: 1
- Confusional State: Treatment Related Grade ≥3 AE, # patients [6]: 0
- Delusion: Treatment Related Grade ≥3 AE, # patients [6]: 1
- Dyspnea: Treatment Related Grade ≥3 AE, # patients [6]: 1
- Embolism: Treatment Related Grade ≥3 AE, # patients [6]: 0
- Fall: Treatment Related Grade ≥3 AE, # patients [6]: 1
- Fatigue: Treatment Related Grade ≥3 AE, # patients [6]: 1
- Hallucination: Treatment Related Grade ≥3 AE, # patients [6]: 1
- Headache: Treatment Related Grade ≥3 AE, # patients [6]: 3
- Hypertension: Treatment Related Grade ≥3 AE, # patients [6]: 0
- Hyponatremia: Treatment Related Grade ≥3 AE, # patients [6]: 1
- Insomnia: Treatment Related Grade ≥3 AE, # patients [6]: 1
- Intracranial Hemorrhage: Treatment Related Grade ≥3 AE, # patients [6]: 0
- Optic Nerve Disorder: Treatment Related Grade ≥3 AE, # patients [6]: 0
- Proteinuria: Treatment Related Grade ≥3 AE, # patients [6]: 0
- Anaemia, MRZ related AE, patients [7]: 5 (16.7%
- Ataxia, MRZ related AE, patients [7]: 5 (16.7%)
- Confusional state, MRZ related AE, patients [7]: 6 (20.0%)
- Constipation, MRZ related AE, patients [7]: 6 (20.0%)
- Diarrhoea, MRZ related AE, patients [7]: 7 (23.3)
- Dizziness, MRZ related AE, patients [7]: 3 (10.0%)
- Dysphonia, MRZ related AE, patients [7]: 0
- Epistaxis, MRZ related AE, patients [7]: 1 (3.3%)
- Fall, MRZ related AE, patients [7]: 1 (3.3%)
- Fatigue, MRZ related AE, patients [7]: 18 (60.0%)
- Hallucination, MRZ related AE, patients [7]: 11 (36.7%)
- Headache, MRZ related AE, patients [7]: 11 (36.7%)
- Infusion site pain, MRZ related AE, patients [7]: 2 (6.7%)
- Muscular weakness, MRZ related AE, patients [7]: 0
- Nausea, MRZ related AE, patients [7]: 9 (30.0%)
- Platelet count decreased, MRZ related AE, patients [7]: 0
- Stomatitis, MRZ related AE, patients [7]: 0
- Upper-airway cough syndrome, MRZ related AE, patients [7]: 0
- Vomiting, MRZ related AE, patients [7]: 7 (23.3)
